“Also recorded” adds a separate entry of the source.
How the values were obtained:
blood glucose levels = test: Mouse type 1 diabetes model, blood glucose control; type: in vivo; conditions: 3 IU sc without a hydrogel, diabetic mice
[1] = UPLC in vitro release assay of small molecules from MDP hydrogels; type: physicochemical
[2] = Ganfeborole pharmacokinetics after subcutaneous injection
M. tuberculosis H37Rv = test: Mouse model of acute tuberculosis, lung CFU counts; type: in vivo, Mycobacterium tuberculosis; conditions: for reduction of colony-forming units in lungs: 600 μg single sc injection without hydrogel; for reduction in bacterial burden compared with vehicle control: ten oral doses of 60 μg
[3] = high doses; cited from earlier work
[4] = Stability of ganfeborole loaded in hydrogels quantified by UPLC; type: physicochemical
[5] = Boronate ester association; type: physicochemical; conditions: SHA vs catechol, across boronic acids
[6] = UV–vis stability of dynamic covalent bonding motifs in solution; conditions: pH 7.4 PBS, over 15 days
[7] = Bortezomib pharmacokinetics after subcutaneous injection; conditions: 175 ng sc, alone without hydrogel
[8] = female, BALB/c, mouse, in vivo, sc
[9] = from nitroCat-K2 hydrogel, 24 h
[10] = 600 μg in SHA-E2, non-compartmental analysis
[11] = 600 μg in SHA-K2 vs drug alone, non-compartmental analysis
[12] = from Cat-K2 hydrogel, first 2 h
[13] = from unmodified K2 hydrogel, first 2 h, 10 mg ml^-1 peptide, PBS, 37 °C

## insulin: commercially purchased unmodified insulin
Blood glucose levels
  time until mice became hyperglycemic again: ≤ 4 h
Blood glucose levels; listed as unmodified insulin
  time until mice became hyperglycemic again: less than 4 h

## OB1OCc2cc(F)ccc21 [tavaborole]
[1]; from Cat-K2 hydrogel, 24 h
  drug released in vitro: 80.0 ± 4.7%
[1]; from SHA-K2 hydrogel, 24 h
  drug released in vitro: 49.1 ± 0.3%
[1]; [9]
  drug released in vitro: 64.8 ± 0.9%

## NC[C@H]1OB(O)c2c(OCCO)ccc(Cl)c21 [ganfeborole]
[2]; 75 μg sc in 50 μl of 10 mg ml^-1 K2
  in vivo release: unable to prolong drug release in vivo
[2]; 75 μg sc in 50 μl of 10 mg ml^-1 SHA-K2, EC50 ref 51
  duration of concentration above the EC50 relative to other groups: over 4 fold
[2]; 75 μg sc in 50 μl of 10 mg ml^-1 nitroCat-K2
  in vivo release: unable to prolong drug release in vivo
[2]; 600 μg in 200 μl of 20 mg ml^-1 SHA-E2
  in vivo release compared with unmodified E2 hydrogel: prolongs drug release
[2]; 600 μg in SHA-E2
  enhancement of half-life compared with ganfeborole alone: over 10 fold
[2]; [10]
  effect on Cmax: reduces the maximum circulating concentration
  effect on drug exposure (AUC): improves drug exposure
[2]; 600 μg in SHA-K2 vs drug alone
  effect on Cmax: reducing the maximum drug concentration
[2]; [11]
  improvement of AUC: 2.8 fold
  increase of half-life: 6.5 fold
M. tuberculosis H37Rv; 600 μg single injection in SHA-E2 vs ten oral doses
  bacterial burden reduction compared with oral dosing: ~10 fold
M. tuberculosis H37Rv; 600 μg single sc injection in SHA-E2, 7 days
  reduction in bacterial lung burden compared with vehicle control: 2.58 log10
M. tuberculosis H37Rv; 600 μg single sc injection in SHA-E2, 14 days
  reduction in bacterial lung burden compared with vehicle control: 4.12 log10
M. tuberculosis H37Rv; 7 days
  reduction of colony-forming units in lungs: 0.95 log10
  reduction in bacterial burden compared with vehicle control: 1.67 log10
M. tuberculosis H37Rv; 14 days
  reduction of colony-forming units in lungs: 1.55 log10
  reduction in bacterial burden compared with vehicle control: 3.32 log10
[1]; from K2 hydrogel
  in vitro release rate: similarly rapid release rates
[1]; from K2 hydrogel, 30 min
  drug released in vitro: 59.0 ± 1.1%
[1]; from SHA-E2 hydrogel, loaded at 0.5 mg ml^-1
  in vitro release: significantly slowed the release; also recorded: performed similarly to SHA-K2
[1]; from SHA-K2 hydrogel, 24 h
  drug released in vitro: 48.7 ± 2.5%
[1]; from SHA-K2 hydrogel, compared with K2
  in vitro release rate: significantly extend the release
[1]; from nitroCat-K2 hydrogel
  in vitro release rate: similarly rapid release rates
[3]
  tolerability in humans: well tolerated in humans at high doses
[4]; in Cat-K2
  stability of drug loaded in hydrogel: rapid oxidative degradation; also recorded: rapidly degrades the compound
[4]; in K2, nitroCat-K2 and SHA-K2 (all hydrogels except Cat-K2), two weeks
  stability of drug loaded in hydrogel: majority of the drug remains stable over the course of two weeks

## COCCOc1nc(N)c2[nH]c(=O)n(Cc3ccc(C(=O)O)cc3)c2n1 [Compound 1V209]
[1]; drug without BA, SABER hydrogels vs K2
  in vitro release kinetics from SABER hydrogels: no altered release kinetics were observed

## CC(C)C[C@H](NC(=O)CNC(=O)c1cc(Cl)ccc1Cl)B(O)O [ixazomib]
[1]; [12]
  drug released in vitro: > 57.1%
[1]; from SHA-K2 hydrogel, 2 h
  drug released in vitro: 15–25%
[1]; from SHA-K2 hydrogel, 24 h
  drug released in vitro: 50–70%
[1]; from nitroCat-K2 hydrogel, 2 h
  drug released in vitro: 15–25%
[1]; [9]
  drug released in vitro: 50–70%
[1]; [13]
  drug released in vitro: > 82.3%

## O=C(NO)c1ccccc1O [SHA, salicylhydroxamic acid]
[5]
  boronate ester association constant relative to catechol association constants: 6.5- to 9.6 fold
[6]
  stability in solution by UV–vis: excellent stability over 15 days in solution

## CC(C)C[C@H](NC(=O)[C@H](Cc1ccccc1)NC(=O)c1cnccn1)B(O)O [bortezomib]
[7]
  maximum concentration: 21.2 ± 3.1 ng/mL
[1]; [12]
  drug released in vitro: > 57.1%
[1]; from SHA-K2, physiologically relevant glucose range
  glucose dependence of in vitro release: independent of glucose concentration
[1]; from SHA-K2 hydrogel, 2 h
  drug released in vitro: 15–25%
[1]; from SHA-K2 hydrogel, 24 h
  drug released in vitro: 50–70%
[1]; from nitroCat-K2 hydrogel, 2 h
  drug released in vitro: 15–25%
[1]; [9]
  drug released in vitro: 50–70%
[1]; [13]
  drug released in vitro: > 82.3%
[8]
  blood concentration at 336 h relative to peak-matched 175 ng control: 2.7 fold

Reference: publication PMC13112199 (Nature nanotechnology, 2025)
